Key:
[1] = as set forth in the '352, '861 and '622 patents; cited from earlier work
[2] = as set forth in the '352, '861 and '622 patents; cited from earlier work; remark: listed apart in the source
vitamin D receptors = molecular target: T1, vitamin D receptors (Homo sapiens, UniProt P11473); conditions: as set forth in the '352, '861 and '622 patents; cited from earlier work
T1 sequence (P11473 1-427): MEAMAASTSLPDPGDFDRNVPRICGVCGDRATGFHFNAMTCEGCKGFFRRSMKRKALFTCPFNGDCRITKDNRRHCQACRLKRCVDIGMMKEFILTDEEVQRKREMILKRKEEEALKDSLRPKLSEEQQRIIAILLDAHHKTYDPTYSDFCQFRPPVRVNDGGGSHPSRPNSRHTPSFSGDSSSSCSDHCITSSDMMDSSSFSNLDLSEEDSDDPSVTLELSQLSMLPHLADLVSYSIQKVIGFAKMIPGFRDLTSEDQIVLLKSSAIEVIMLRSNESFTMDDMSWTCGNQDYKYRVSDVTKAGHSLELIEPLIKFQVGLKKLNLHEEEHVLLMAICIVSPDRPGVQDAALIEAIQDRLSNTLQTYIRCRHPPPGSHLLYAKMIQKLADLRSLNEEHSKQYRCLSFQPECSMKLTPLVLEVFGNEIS

[3] = Bone calcium mobilization (serum calcium on low calcium diet); type: in vivo, Sprague-Dawley rats; conditions: rats, ip, four consecutive doses, even very high concentrations; FIG. 4
Source text: FIG. 4 is a bar graph comparing the bone calcium mobilization activity of (20R)-2 MbisP with that of 1,25(OH)2D3.
(§1) Male, weanling Sprague-Dawley rats were placed on Diet 11 (0.47% Ca) diet +AEK for one week followed by Diet 11 (0.02% Ca) +AEK for 3 weeks. The rats were then switched to a diet containing 0.47% Ca for one week followed by two weeks on a diet containing 0.02% Ca. Dose administration began during the last week on 0.02% calcium diet. Four consecutive ip doses were given approximately 24 hours apart. Twenty-four hours after the last dose, blood was collected from the severed neck and the concentration of serum calcium determined as a measure of bone calcium mobilization. The first 10 cm of the intestine was also collected for intestinal calcium transport analysis using the everted gut sac method.

[4] = Intestinal calcium transport (everted gut sac method); type: in vivo, Sprague-Dawley rats; conditions: rats, ip, four consecutive doses, even very high concentrations; FIG. 5
Source text: FIG. 5 is a bar graph comparing the intestinal calcium transport activity of (20R)-2 MbisP with that of 1,25(OH)2D3.
as §1

[5] = test system: parathyroid hormone (PTH); assay: PTH suppression in adult rats; type: in vivo, Sprague-Dawley rats; conditions: ip, 7 consecutive days, FIG. 7
Protocol: FIG. 7 is a bar graph comparing the percent parathyroid hormone (PTH) suppression in adult rats of (20R)-2 MbisP with 1,25(OH)2D3.
(§2) Adult, female Sprague-Dawley rats were obtained from Harlan (Madison, Wis.).
(§3) Upon receipt, the animals were identified by individual tail marks. Animals were housed in suspended, stainless steel, wire-bottom cages. Each cage contained one animal. The animal rooms were maintained at a temperature of 68 to 72° F. and a relative humidity of 25 to 75%. The holding rooms were set to provide 12 hours of light per day. Water and a purified rodent diet (Suda et al., Purified Rodent Diet-Diet 11) containing […] 0.3% phosphorus and fat soluble vitamins A, D, E and K were provided ad libitum.
(§4) Animals were randomly assigned to treatment groups (5 animals/group). All doses were administered intraperitoneally in 100 microliters of propylene glycol. Four to seven consecutive doses were given approximately 24 hours apart. Dosing was initiated after the animals had been allowed to acclimate for at least one week. […]
Twenty-four hours after the final dose, blood was collected from the tail artery and the concentration of bioactive serum PTH was measured using the rat BioActive Intact PTH ELISA Kit from Immutopics, Inc. (San Clemente, Calif.).

[6] = test system: 24-hydroxylase (24Ohase) gene promoter; assay: In vitro transcription assay (luciferase reporter in ROS 17/2.8 cells); type: cell-based; conditions: FIG. 3
Protocol: FIG. 3 is a graph comparing the in vitro transcription activity of (20R)-2MbisP with that of 1,25(OH)2D3.
Transcription activity was measured in ROS 17/2.8 (bone) cells that were stably transfected with a 24-hydroxylase (24Ohase) gene promoter upstream of a luciferase reporter gene (Arbour et al., 1998). Cells were given a range of doses. Sixteen hours after dosing the cells were harvested and luciferase activities were measured using a luminometer. RLU=relative luciferase units.

[7] = test system: Human promyelocytic leukemia (HL60) cells; assay: HL-60 differentiation (nitro blue tetrazolium reduction); type: cell-based; conditions: HL-60 cells in culture; FIG. 2
Protocol: FIG. 2 is a graph comparing the percent HL-60 cell differentiation as a function of the concentration of (20R)-2 MbisP with that of 1,25(OH)2D3.
The study drugs were dissolved in ethanol and the concentrations determined using UV spectrophotometry. Serial dilutions were prepared so that a range of drug concentrations could be tested without changing the final concentration of ethanol (≦0.2%) present in the cell cultures.
Human promyelocytic leukemia (HL60) cells were grown in RPMI-1640 medium containing 10% fetal bovine serum. The cells were incubated at 37° C. in the presence of 5% CO2.
HL60 cells were plated at 1.2×10^5 cells/ml. Eighteen hours after plating, cells in duplicate were treated with drug. Four days later, the cells were harvested and a nitro blue tetrazolium reduction assay was performed (Collins et al., 1979; J. Exp. Med. 149:969-974). The percentage of differentiated cells was determined by counting a total of 200 cells and recording the number that contained intracellular black-blue formazan deposits. Verification of differentiation to monocytic cells was determined by measuring phagocytic activity (data not shown).

[8] = molecular target: T2, full-length recombinant rat vitamin D receptor (Rattus norvegicus, UniProt P13053); assay: Vitamin D receptor competitive binding with [3H]-1,25-(OH)2-D3; conditions: competition with [3H]-1,25-(OH)2-D3; FIG. 1
T2 construct: Full-length recombinant rat receptor was expressed in E. coli BL21(DE3) Codon Plus RIL cells; histidine tag (C); made in house; host or cells: E. coli BL21(DE3) Codon Plus RIL
T2 sequence (P13053 1-423): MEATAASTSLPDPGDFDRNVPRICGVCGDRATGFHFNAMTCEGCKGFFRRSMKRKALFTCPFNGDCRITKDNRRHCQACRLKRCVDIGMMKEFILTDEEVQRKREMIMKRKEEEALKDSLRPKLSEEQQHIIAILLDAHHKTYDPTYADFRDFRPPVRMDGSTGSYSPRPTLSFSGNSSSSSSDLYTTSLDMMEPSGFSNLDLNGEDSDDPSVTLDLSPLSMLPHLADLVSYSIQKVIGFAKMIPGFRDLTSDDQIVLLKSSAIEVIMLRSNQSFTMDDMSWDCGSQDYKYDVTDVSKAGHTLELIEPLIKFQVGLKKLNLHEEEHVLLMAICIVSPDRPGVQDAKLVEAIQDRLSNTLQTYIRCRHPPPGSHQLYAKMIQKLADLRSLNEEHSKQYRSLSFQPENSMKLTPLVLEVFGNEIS
Source text: FIG. 1 is a graph comparing the relative activity of (20R)-2 MbisP and 1,25(OH)2D3 to compete for binding with [^3H]-1,25-(OH)2-D3 to the full-length recombinant rat vitamin D receptor.
Full-length recombinant rat receptor was expressed in E. coli BL21(DE3) Codon Plus RIL cells and purified to homogeneity using two different column chromatography systems. The first system was a nickel affinity resin that utilizes the C-terminal histidine tag on this protein. The protein that was eluted from this resin was further purified using ion exchange chromatography (S-Sepharose Fast Flow). Aliquots of the purified protein were quick frozen in liquid nitrogen and stored at −80° C. until use. For use in binding assays, the protein was diluted in TEDK50 (50 mM Tris, 1.5 mM EDTA, pH 7.4, 5 mM DTT, 150 mM KCl) with 0.1% Chaps detergent. […]
Unlabeled ligands were dissolved in ethanol and the concentrations determined using UV spectrophotometry (1,25(OH)2D3: molar extinction coefficient=18,200 and λmax=265 nm; Analogs: molar extinction coefficient=42,000 and λmax=252 nm). […]
Radiolabeled and unlabeled ligands were added to 100 mcl of the diluted protein at a final ethanol concentration of ≦10%, mixed and incubated overnight on ice to reach binding equilibrium. […] Total binding was determined from the tubes containing only radiolabeled ligand.

[9] = Hypercalcemia: serum calcium in adult rats; type: in vivo, Sprague-Dawley rats; conditions: ip, doses as high as 45 nmol/day, FIG. 6
Protocol: FIG. 6 is a bar graph comparing the serum calcium levels in adult rats after administration of (20R)-2 MbisP and 1,25(OH)2D3.
as §2, §3, §4
Twenty-four hours after the final dose, approximately 1 ml of blood was collected from the tail artery of each experimental animal. […] The level of calcium was determined by diluting the serum into 0.1% lanthum chloride and measuring the absorbance on an atomic absorption spectrophotometer (Perkin Elmer Model 3110, Shelton, Conn.).

times less active than 1,25-(OH)2D3 in turning on transcription of a reporter gene coupled to the CYP-24 promoter [6]	hypercalcemia (serum calcium) [9]	Compound	calcemic activity as compared to 1α,25-dihydroxyvitamin D3 [1]	cell differentiation activity [2]	binding activity to vitamin D receptors (vitamin D receptors)	bone calcium mobilization [3]	intestinal calcium transport [4]	suppression of parathyroid hormone (PTH) in the plasma [5]	times less active than 1,25-(OH)2D3 in causing the differentiation of HL-60 cells [7]	binding to the recombinant vitamin D receptor relative to 1,25-(OH)2D3 [8]
		C=C1[C@H](O)CC(=C/C=C2\CCC[C@]3(C)[C@@H](CC)CC[C@@H]23)C[C@H]1O [1α-Hydroxy-2-methylene-19-nor-pregnacalciferol]	little if any	relatively high	relatively high					
		1α-hydroxy-2-methylene-19-nor-bishomopregnacalciferol	little if any	relatively high	relatively high					
about 5 times	failed to cause hypercalcemia	C=C1[C@H](O)CC(=C/C=C2\CCC[C@]3(C)C([C@H](C)CC)CC[C@@H]23)C[C@H]1O (stereo in doubt) [2-Methylene-19-nor-(20R)-1α-hydroxy-bishomopregnacalciferol]				does not support	does not support	considerable activity	about 5 times	approximately equally effective as 1,25-(OH)2D3
		1α-hydroxy-2-methylene-19-nor-(20S)-homopregnacalciferol	little if any	relatively high	relatively high					

From US8222235B2, “2-methylene-19-nor-(20R)-1α-hydroxy-bishomopregnacalciferol” (Wisconsin Alumni Research Foundation, priority 2004, dated 2012)
